Experimental data published in article PMC5040747, “Preparation and Evaluation of a Novel Class of Amphiphilic Amines as Antitumor Agents and Nanocarriers for Bioactive Molecules” (Pharmaceutical Research, 2016).
Where two headings read alike, the source gives them in different places.

Assays:
A673 = assay: MTT cell proliferation assay, A673; type: cell-based; details: Homo sapiens, A673, Ewing's Sarcoma, read-out: Cell killing activity IC50
Description: (§1) Cells were plated in 96-well tissue culture plates at a density of 1 × 10^3 cells/well, allowed to attach 24 h, and then left untreated or treated with growth medium containing different concentrations of the tested RCn compounds previously dissolved in PBS. After different time periods the cell vitality was determined by MTT assay according to the manufacture’s instruction (Promega). Results are reported as the micromolar concentration of RCn reducing cell survival to 50% (IC50).

WIDr = assay: MTT cell proliferation assay, WIDr; type: cell-based; details: Homo sapiens, adult tumor cell line, read-out: Cell killing activity IC50
Description: as §1

[1] = tested on: Human Foreskin Keratinocytes (differentiated); assay: MTT cell proliferation assay, normal keratinocytes; type: cell-based; details: Keratinocyte, normal cells, read-out: Cell killing activity IC50
Description: as §1

HUVEC = assay: MTT cell proliferation assay, HUVEC; type: cell-based; details: Homo sapiens, normal cells, read-out: Cell killing activity IC50
Description: as §1

[2] = tested on: adult tumor cell lines (A549, MDA-MB-231, WiDr); assay: MTT cell killing, adult tumor cell lines (summary); type: cell-based; details: Homo sapiens, summary of Table II
Description: as §1

[3] = tested on: human keratinocytes, human fibroblasts and HUVEC; assay: MTT cell killing, normal versus tumor cells (summary); type: cell-based
Description: as §1

[4] = tested on: SH-SY5Y, A673 and 143.98.2 cells; assay: Annexin V-FITC/7AAD flow cytometry (apoptosis); type: cell-based, human; details: 5 μM RC16, 24 h, all cell lines
Description: SH-SY5Y, A673 and 143.98.2 cells were stained with Annexin V-FITC/7AAD according to the manufacturer’s instructions (Biosciences). Briefly, adherent cells were seeded in 6 multi wells at a concentration of 4.5 × 10^5 cells/well and after 24 h treated with 5 μM RC16 for15 h and 24 h. At the end of the treatment the cells were detached, washed twice with cold PBS and then suspended in annexin binding buffer containing 5 μl of Annexin V-FITC and 5 μl of 7AAD. The samples were gently vortexed and incubated 15 min at 25°C in the dark. Finally, 400 ul binding buffer were added to each tube and the samples were analyzed by BD LSR II (Biosciences). The analysis was performed by FlowJo software version 10.0.5.

[5] = tested on: nude mice bearing CHLA-20 tumors; assay: Biodistribution study (IVIS imaging); type: in vivo, mouse; details: RC16 labelled with Cell-Vue Maroon
Description: A pilot biodistribution study using one animal per timepoint was performed to minimize the number of experimental animals. Female athymic nude mice were subcutaneously implanted with 5.0 × 10^6 CHLA-20 cells. When tumors became palpable (approximately 5 mm in diameter), mice were treated with i.v. injections of RC16 labelled with Cell-Vue Maroon (dye:RC16, 1:100 mol:mole) at a dose of 1 mg/kg. […] The mice were then humanely euthanized by CO2 asphyxiation. Organs were removed, weighed and used for quantitative optical imaging by the IVIS system.

[6] = tested on: human tumor xenografts (CHLA-20, SK-N-AS, A673, A549, S462TY); assay: In vivo efficacy, human tumor xenograft models
Description: Female athymic nude mice were subcutaneously injected with 5 × 10^6 human cancer cells in 150 μL mix of PBS and matrigel (2:1). The mice were then randomized into groups of six animals for each tumor type. This number was chosen because we sought a large effect size and to minimize numbers of mice. When tumors reached a mean volume of 150 mm^3, the animals were treated with RC16 or vehicle alone (PBS), given slowly through the tail vein at the dose of 1 mg/kg, 3 times a week for 3 weeks or orally gavaged at the dose of 2 mg/kg/day for 3 weeks.
(§2) Endpoint criteria included tumor volume > 2000 mm3, body weight loss ≥ 20%, unusual mouse behavior, lack of movement and poor posture. Tumor size was measured using digital calipers on alternate days and tumor volume was calculated using the following formula: a x b^2 π/6 where a is the longest diameter and b is the shortest diameter. Mice were also weighed and observed 3 times per week for signs of endpoint condition.

Neuro 2A = assay: In vivo efficacy, metastatic model of murine neuroblastoma; design: species or system mouse
Description: An efficacy study was performed on an immunocompetent model of neuroblastoma. In this experiment A/J mice were i.v. injected with Neuro 2A (0.2 × 10^6 cells in 100 μL of PBS). After 5 days, the mice were randomized (six animals per group) and treated once with RC16 injected through the tail vein at doses of 20 μg or 40 μg/mouse or vehicle (PBS). After treatment animals were monitored for survival and endpoint criteria.
as §2

Micelle size by TEM = type: physicochemical; details: RC16 micelles self-assembled in water
Description: TEM studies were carried out on SH-SY5Y cells and HFs incubated with 5 μM RC16 for 24 h. Cells were seeded on cover glasses for 24 h and then the medium was replaced with a fresh one containing 5 μM RC16 for 24 h. At the end of the treatment the samples were washed with PBS and fixed with 2.5% glutaraldehyde in 0.1 M phosphate buffer for 2 h at 4°C and subsequently post-fixed with 1% OsO4 in 0.1 M phosphate buffer for 1 h at room temperature. After several washes the samples were dehydrated in an acetone series (70, 90, 100%) and embedded in Epon resin (Fluka, Sigma-Aldrich). Thin sections were collected on nickel grids, stained with uranyl acetate and lead citrate, and observed under a TEM (Philips CM10; FEI). Images were recorded using a Megaview III digital camera (FEI). […] To this purpose an aqueous solution of RC16 (20 μM) was stained with 2% (w/v) phosphotungstic acid for 3 min on a copper grid and subsequently it was visualized under TEM.

In the case of `CCCCCCCCCCCCCCC1CN2CCCN3CCCCCC132` (stereo not drawn) [RC16, 2-tetradecyl-4,8-diazatricyclo[6.5.0.0^1,^4]tridecane], the IC50 (A673; 24 h) is reported as 800 nM, the IC50 (A673; 48 h) is reported as 650 nM and the IC50 (WIDr; 24 h) is reported as 7.3 µM. It also gave an IC50 (WIDr; 48 h) of 6.02 µM, an IC50 ([1]; 24 h) of 15.2 µM and an IC50 ([1]; 48 h) of 13.5 µM. The IC50 (HUVEC; 24 h) was 10.6 µM, the IC50 (HUVEC; 48 h) was 9.65 µM and the IC50 [2] was 1 to 10 µM. The “IC50 for normal cells relative to tumor cells” value [3] was “more than tenfold higher”, the “Apoptosis (sum of LR and UR quadrants)” value [4] was “approximately 100%” and the “Organ fluorescence intensity (biodistribution)” value ([5]; 1 mg/kg i.v., 12, 24 and 48 h) was “stomach, intestine and liver showed the highest fluorescence intensity”. The “RC16 level in tumors over time” value ([5]; 1 mg/kg i.v., CHLA-20 tumors) was “remained constant over time”, the “Antitumor activity (inhibition of tumor growth, RTV)” value ([6]; 1 mg/kg i.v. 3 times a week for 3 weeks or 2 mg/kg/day oral gavage for 3 weeks) was “strong antitumor activity” and the “Weight loss or signs of toxicity during treatment” value ([6]; i.v. 1 mg/kg 3 times a week or gavage 2 mg/kg/day, 3 weeks) was “No weight loss or signs of toxicity”. For the same compound, the “Mean survival time versus controls” value (Neuro 2A; A/J mice, single i.v. dose 20 μg or 40 μg/mouse) was “significant increase in the mean survival time”, the “Treated mice healthy and alive, no macroscopic disease at necropsy” value (Neuro 2A; end of experiment (90 days), 20 μg or 40 μg/mouse i.v.) was 3 of the 12 and the Micelle mean diameter (Micelle size by TEM) was 20–30 nm.
